Test results reported in PubChem BioAssay AID2060483 (Molecular Pharmacology Branch, DTP, NCI, 2025).
pIC50: −log10 of the molar value.

Tested on: K24384-001-R-PDC complex spheroids, viability
Assay: Anticancer human tumor K24384-001-R-PDC patient-derived pancreatic adenocarcinoma cell line growth inhibition [GQUAD]
Conditions: for pIC50: curve of first compound; for viability, T/C: stronger effect = lower value; active = viability on the fitted dose curve at most 10% of control; inactive = the rest
Procedure, shortened: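 Tumor cells were grown as complex spheroids with HUVEC endothelial cells and mesenchymal stem cells as stroma. G-quadruplex stabilizers were combined with targeted agents over half-log dilutions from near the clinical Cmax, or from 10 microM.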

[1] = second compound 0.0316 µM, first compound 0.0316 µM
[2] = second compound 0.0316 µM, first compound 0.316 µM
[3] = second compound 0.1 µM, first compound 0.0316 µM
[4] = second compound 0.1 µM, first compound 0.316 µM
[5] = second compound 0.316 µM, first compound 0.0316 µM
[6] = second compound 0.316 µM, first compound 0.316 µM
[7] = second compound 1 µM, first compound 0.0316 µM
[8] = second compound 1 µM, first compound 0.316 µM
[9] = second compound 3.16 µM, first compound 0.0316 µM
[10] = second compound 3.16 µM, first compound 0.316 µM
[11] = second compound 10 µM, first compound 0.0316 µM
[12] = second compound 10 µM, first compound 0.316 µM
[13] = second compound 0.0316 µM, first compound 0.1 µM
[14] = second compound 0.0316 µM, first compound 1 µM
[15] = second compound 0.0316 µM, first compound 3.16 µM
[16] = second compound 0.0316 µM, first compound 10 µM
[17] = second compound 0.1 µM, first compound 0.1 µM
[18] = second compound 0.1 µM, first compound 1 µM
[19] = second compound 0.1 µM, first compound 3.16 µM
[20] = second compound 0.1 µM, first compound 10 µM
[21] = second compound 0.316 µM, first compound 0.1 µM
[22] = second compound 0.316 µM, first compound 1 µM
[23] = second compound 0.316 µM, first compound 3.16 µM
[24] = second compound 0.316 µM, first compound 10 µM
[25] = second compound 1 µM, first compound 0.1 µM
[26] = second compound 1 µM, first compound 1 µM
[27] = second compound 1 µM, first compound 3.16 µM
[28] = second compound 1 µM, first compound 10 µM
[29] = second compound 3.16 µM, first compound 0.1 µM
[30] = second compound 3.16 µM, first compound 1 µM
[31] = second compound 3.16 µM, first compound 3.16 µM
[32] = second compound 3.16 µM, first compound 10 µM
[33] = second compound 10 µM, first compound 0.1 µM
[34] = second compound 10 µM, first compound 1 µM
[35] = second compound 10 µM, first compound 3.16 µM
[36] = second compound 10 µM, first compound 10 µM
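Also: spheroids exposed to compounds for seven days.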

CC[C@@]1(O)C(=O)OCc2c1cc1n(c2=O)Cc2cc3c(CN(C)C)c(O)ccc3nc2-1 + Cc1cnc(CNC(=O)c2c(=O)c3ccc(N4CCCN(C)CC4)nc3n3c2sc2ccccc23)cn1
active: viability, T/C [12] 0.39%
6.86: pIC50 (second compound 0.316 µM)
> 9.00: pIC50 (second compound 1 µM) | pIC50 (second compound 3.16 µM) | pIC50 (second compound 10 µM)
< 6.50: pIC50 (second compound 0.0316 µM)
inactive: viability, T/C (second compound 0.0316 µM, first compound 0.000999 µM) 96.3% | viability, T/C (second compound 0.0316 µM, first compound 0.00316 µM) 71.1% | viability, T/C (second compound 0.0316 µM, first compound 0.00999 µM) 105% | viability, T/C [1] 64.1% | viability, T/C (second compound 0.0316 µM, first compound 0.0999 µM) 58.5% | viability, T/C [2] 44.1% | viability, T/C (second compound 0.1 µM, first compound 0.000999 µM) 64.1% | viability, T/C (second compound 0.1 µM, first compound 0.00316 µM) 69% | viability, T/C (second compound 0.1 µM, first compound 0.00999 µM) 64.8% | viability, T/C [3] 58% | viability, T/C (second compound 0.1 µM, first compound 0.0999 µM) 56.5% | viability, T/C [4] 47.1% | viability, T/C (second compound 0.316 µM, first compound 0.000999 µM) 56.1% | viability, T/C (second compound 0.316 µM, first compound 0.00316 µM) 55.2% | viability, T/C (second compound 0.316 µM, first compound 0.00999 µM) 47.8% | viability, T/C [5] 49.9% | viability, T/C (second compound 0.316 µM, first compound 0.0999 µM) 60.3% | viability, T/C [6] 39.8% | viability, T/C (second compound 1 µM, first compound 0.000999 µM) 40.7% | viability, T/C (second compound 1 µM, first compound 0.00316 µM) 51.3% | viability, T/C (second compound 1 µM, first compound 0.00999 µM) 36.5% | viability, T/C [7] 42.7% | viability, T/C (second compound 1 µM, first compound 0.0999 µM) 46% | viability, T/C [8] 37.6% | viability, T/C (second compound 3.16 µM, first compound 0.000999 µM) 34.8% | viability, T/C (second compound 3.16 µM, first compound 0.00316 µM) 39.1% | viability, T/C (second compound 3.16 µM, first compound 0.00999 µM) 34.3% | viability, T/C [9] 39.6% | viability, T/C (second compound 3.16 µM, first compound 0.0999 µM) 40.5% | viability, T/C [10] 30% | viability, T/C (second compound 10 µM, first compound 0.000999 µM) 34.1% | viability, T/C (second compound 10 µM, first compound 0.00316 µM) 22.9% | viability, T/C (second compound 10 µM, first compound 0.00999 µM) 36.3% | viability, T/C [11] 38.4% | viability, T/C (second compound 10 µM, first compound 0.0999 µM) 21.2%
6.67: pIC50 (second compound 0.1 µM)

O=C(c1cc(Cc2n[nH]c(=O)c3ccccc23)ccc1F)N1CCN(C(=O)C2CC2)CC1 + Cc1cnc(CNC(=O)c2c(=O)c3ccc(N4CCCN(C)CC4)nc3n3c2sc2ccccc23)cn1
7.50: pIC50 (second compound 1 µM)
> 7.50: pIC50 (second compound 3.16 µM) | pIC50 (second compound 10 µM)
inactive: viability, T/C [1] 88.4% | viability, T/C [13] 93.5% | viability, T/C [2] 92.8% | viability, T/C [14] 113% | viability, T/C [15] 94.8% | viability, T/C [16] 86.3% | viability, T/C [3] 71.8% | viability, T/C [17] 88.7% | viability, T/C [4] 66.9% | viability, T/C [18] 83.6% | viability, T/C [19] 70.9% | viability, T/C [20] 80.7% | viability, T/C [5] 62.5% | viability, T/C [21] 81.5% | viability, T/C [6] 60% | viability, T/C [22] 88.3% | viability, T/C [23] 88.7% | viability, T/C [24] 62.5% | viability, T/C [7] 53% | viability, T/C [25] 48.4% | viability, T/C [8] 49.1% | viability, T/C [26] 67.4% | viability, T/C [27] 60.2% | viability, T/C [28] 49.7% | viability, T/C [9] 43.5% | viability, T/C [29] 52.8% | viability, T/C [10] 47.6% | viability, T/C [30] 59.5% | viability, T/C [31] 38.3% | viability, T/C [32] 50.9% | viability, T/C [11] 40.5% | viability, T/C [33] 24.1% | viability, T/C [12] 43.3% | viability, T/C [34] 45.6% | viability, T/C [35] 27.9% | viability, T/C [36] 12.3%
< 5.00: pIC50 (second compound 0.0316 µM) | pIC50 (second compound 0.1 µM) | pIC50 (second compound 0.316 µM)

C#Cc1c(F)ccc2cc(O)cc(-c3ncc4c(N5CC6CCC(C5)N6)nc(OCC56CCCN5CC(F)C6)nc4c3F)c12 (stereo unspecified) + CN(C)c1ccc(Nc2c3ccc(NC(=O)CCN4CCCC4)cc3nc3cc(NC(=O)CCN4CCCC4)ccc23)cc1
5.77: pIC50 (second compound 0.1 µM)
active: viability, T/C [36] 7.21%
5.82: pIC50 (second compound 0.316 µM)
5.98: pIC50 (second compound 0.0316 µM)
5.75: pIC50 (second compound 1 µM)
inactive: viability, T/C [1] 101% | viability, T/C [13] 84.6% | viability, T/C [2] 68.1% | viability, T/C [14] 51.5% | viability, T/C [15] 32.5% | viability, T/C [16] 14.4% | viability, T/C [3] 109% | viability, T/C [17] 105% | viability, T/C [4] 78.2% | viability, T/C [18] 63.9% | viability, T/C [19] 36.1% | viability, T/C [20] 16% | viability, T/C [5] 87.7% | viability, T/C [21] 108% | viability, T/C [6] 85% | viability, T/C [22] 61.5% | viability, T/C [23] 31.1% | viability, T/C [24] 20.1% | viability, T/C [7] 104% | viability, T/C [25] 82.1% | viability, T/C [8] 90.4% | viability, T/C [26] 58.1% | viability, T/C [27] 38.7% | viability, T/C [28] 17.6% | viability, T/C [9] 89.3% | viability, T/C [29] 85.8% | viability, T/C [10] 92.3% | viability, T/C [30] 61.9% | viability, T/C [31] 35.5% | viability, T/C [32] 14.4% | viability, T/C [11] 92.5% | viability, T/C [33] 77% | viability, T/C [12] 68.5% | viability, T/C [34] 55.1% | viability, T/C [35] 30.1%
5.95: pIC50 (second compound 10 µM)
5.76: pIC50 (second compound 3.16 µM)
